# According to patent US10294202B2, “Pyrrolidinones as herbicides” (FMC Corporation, priority 2013, dated 2019):
# Experiments:
# wheat = assay: Test A pre-/postemergence herbicide test; assay type: in vivo, Triticum aestivum
# Procedure, shortened: (§1)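 Both application timings used compounds in a non-phytotoxic solvent plus surfactant. Pre-emergence: soil sprayed directly after seeding into loam/sand. Post-emergence: foliage of 2–10 cm seedlings (1–2 leaves) sprayed. Injury rated ~10 days later, 0–100.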
# crabgrass, large = assay: Test A pre-/postemergence herbicide test; assay type: in vivo, Digitaria sanguinalis
# Procedure, shortened: as §1
# rice = assay: Test C flooded paddy test; assay type: in vivo, Oryza sativa; settings: Flood
# Procedure, shortened: (§2)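 Ratings reflect visual comparison with controls on a 0–100 scale, where 100 is complete control. Compound is dosed into standing paddy water 3 cm deep over 2-leaf-stage plants, kept in the greenhouse 13 to 15 days.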
# barnyardgrass [1] = assay: Test A pre-/postemergence herbicide test; assay type: in vivo, Echinochloa crus-galli
# Procedure, shortened: as §1
# corn = assay: Test A pre-/postemergence herbicide test; assay type: in vivo, Zea mays
# Procedure, shortened: as §1
# velvetleaf = assay: Test A pre-/postemergence herbicide test; assay type: in vivo, Abutilon theophrasti
# Procedure, shortened: as §1
# giant foxtail = assay: Test A pre-/postemergence herbicide test; assay type: in vivo, Setaria faberii
# Procedure, shortened: as §1
# morningglory = assay: Test A pre-/postemergence herbicide test; assay type: in vivo, Ipomoea spp.
# Procedure, shortened: as §1
# pigweed = assay: Test A pre-/postemergence herbicide test; assay type: in vivo, Amaranthus retroflexus
# Procedure, shortened: as §1
# sedge, umbrella = assay: Test C flooded paddy test; assay type: in vivo, Cyperus difformis; settings: Flood
# Procedure, shortened: as §2
# barnyardgrass [2] = assay: Test C flooded paddy test; assay type: in vivo, Echinochloa crus-galli; settings: Flood
# Procedure, shortened: as §2
# ducksalad = assay: Test C flooded paddy test; assay type: in vivo, Heteranthera limosa; settings: Flood
# Procedure, shortened: as §2
# [3] = Postemergence, 125 g ai/ha, 0 to 100 scale, 0 no effect, 100 complete control
# [4] = Postemergence, 500 g ai/ha, 0 to 100 scale (0 no effect, 100 complete control)
# [5] = Preemergence, 125 g ai/ha, visual rating on 0 to 100 scale (0 no effect, 100 complete control)
# [6] = preemergence, 500 g ai/ha, 0 to 100 scale
# [7] = 125 g ai/ha, scale of 0 to 100 where 0 is no effect and 100 is complete control, 13 to 15 days
smiles,measurement,setting,value
O=C1NCC(c2ccc(F)c(F)c2)C1C(=O)Nc1cccc(F)c1F (racemic) [Compound 107],"Plant response rating, Wheat",wheat; [3],0
same,"Plant response rating, Wheat",wheat; [4],0
same,Wheat plant response rating,wheat; [5],0
same,"Plant response rating, Wheat",wheat; [6],0
same,"Plant response rating, Crabgrass, Large","crabgrass, large; [3]",60
same,"Plant response rating, Crabgrass, Large","crabgrass, large; [4]",70
same,"Crabgrass, Large plant response rating","crabgrass, large; [5]",80
same,"Plant response rating, Crabgrass, Large","crabgrass, large; [6]",90
same,"Plant response rating, Rice",rice; [7],0
same,"Plant response rating, Rice","rice; 250 g ai/ha, scale 0 to 100",0
same,"Plant response rating, Rice","rice; 500 g ai/ha, scale 0 to 100",0
same,"Plant response rating, Rice","rice; 1000 g ai/ha, scale 0 to 100",0
same,"Plant response rating, Barnyardgrass",barnyardgrass [1]; [3],50
same,"Plant response rating, Barnyardgrass",barnyardgrass [1]; [4],80
same,Barnyardgrass plant response rating,barnyardgrass [1]; [5],20
same,"Plant response rating, Barnyardgrass","barnyardgrass [1]; preemergence, 500 g ai/ha, 0 to 100 scale (0 no effect, 100 complete control)",70
same,"Plant response rating, Corn",corn; [3],0
same,"Plant response rating, Corn",corn; [4],0
same,Corn plant response rating,corn; [5],0
same,"Plant response rating, Corn",corn; [6],0
same,"Plant response rating, Velvetleaf",velvetleaf; [3],0
same,"Plant response rating, Velvetleaf",velvetleaf; [4],20
same,Velvetleaf plant response rating,velvetleaf; [5],0
same,"Plant response rating, Velvetleaf",velvetleaf; [6],0
same,"Plant response rating, Foxtail, Giant",giant foxtail; [3],10
same,"Plant response rating, Foxtail, Giant",giant foxtail; [4],70
same,"Foxtail, Giant plant response rating",giant foxtail; [5],70
same,"Plant response rating, Foxtail, Giant",giant foxtail; [6],80
same,"Plant response rating, Morningglory",morningglory; [3],0
same,"Plant response rating, Morningglory",morningglory; [4],40
same,Morningglory plant response rating,morningglory; [5],0
same,"Plant response rating, Morningglory",morningglory; [6],0
same,"Plant response rating, Pigweed",pigweed; [3],0
same,"Plant response rating, Pigweed",pigweed; [4],30
same,Pigweed plant response rating,pigweed; [5],0
same,"Plant response rating, Pigweed",pigweed; [6],20
same,"Plant response rating, Sedge, Umbrella","sedge, umbrella; [7]",0
same,"Plant response rating, Sedge, Umbrella","sedge, umbrella; 250 g ai/ha, scale 0 to 100",0
same,"Plant response rating, Sedge, Umbrella","sedge, umbrella; 500 g ai/ha, scale 0 to 100",0
same,"Plant response rating, Sedge, Umbrella","sedge, umbrella; 1000 g ai/ha, scale 0 to 100",0
same,"Plant response rating, Barnyardgrass",barnyardgrass [2]; [7],0
same,"Plant response rating, Barnyardgrass","barnyardgrass [2]; 250 g ai/ha, scale 0 to 100",0
same,"Plant response rating, Barnyardgrass","barnyardgrass [2]; 500 g ai/ha, scale 0 to 100",0
same,"Plant response rating, Barnyardgrass","barnyardgrass [2]; 1000 g ai/ha, scale 0 to 100",20
same,"Plant response rating, Ducksalad",ducksalad; [7],0
same,"Plant response rating, Ducksalad","ducksalad; 250 g ai/ha, scale 0 to 100",30
same,"Plant response rating, Ducksalad","ducksalad; 500 g ai/ha, scale 0 to 100",60
same,"Plant response rating, Ducksalad","ducksalad; 1000 g ai/ha, scale 0 to 100",70
